Experimental data: patent US9278131B2, “Process for lowering the viscosity of highly concentrated protein solutions” (ADOCIA, priority 2012, dated 2016)

Tests used:
[1] = system: bevacizumab; assay: viscosity of highly concentrated bevacizumab solution, cone/plate rheometer; format: physicochemical; settings: Table I; bevacizumab 250 mg/mL, 150 mM additive, pH 6.2 ± 0.2, 21° C.
Description: (§1) For this example, three solutions of monoclonal antibodies, i.e. a solution of bevacizumab (an IgG1 sold under the name Avastin® by Genentech/Hoffmann La Roche), a solution of infliximab (an IgG1/K sold under the name Remicade® by Schering-Plough), a solution of rituximab (an IgG1/K sold under the name mAbThera® by Hoffmann La Roche) and a solution of fusion protein, i.e. a solution of abatacept (IgG1-CTLA4 sold under the name Orencia® by Bristol-Meyers Squibb), were concentrated by ultrafiltration on Amicon® Ultra-15 filtration units with a cutoff threshold of 50 kDa.
The protein concentration of each concentrated solution was measured by UV spectroscopy (absorbance at 280 nm) after gravimetric dilution of the samples. […]
(§2) The effect of RVs 2 and 9 on the viscosity of these four highly concentrated therapeutic protein solutions was then evaluated comparatively with that of Arg and NaCl. To do this, the viscosity was measured using a cone/plate rheometer (TA Instrument, AR 2000 Ex, geometry of diameter 20 mm, cone of 0.5131°, solvent trap filled with water) at a temperature of 21° C. and in flow sweep mode with shear rates of between 5000 and 50 s^−1 (3 points per decade—steady-state sensing). […]

[2] = system: infliximab; assay: viscosity of highly concentrated infliximab formulation, cone/plate rheometer at 25° C. (example 7); format: physicochemical; settings: Table VII; infliximab 125 mg/mL, 150 mM additive, pH 7.2 ± 0.2, 25° C.
Experimental: For this example, two monoclonal antibody formulations, i.e. infliximab and trastuzumab (an IgG1/κ sold under the name Herceptin® by Genentech) were concentrated by ultrafiltration on Amicon® Ultra-50 centrifugal filtration units with a cutoff threshold of 50 kDa. The protein concentration of each concentrated solution was measured by UV spectroscopy (absorbance at 280 nm) after gravimetric dilution of the samples. […]
(§3) The effect of RVs 2 and 11 on the viscosity of these two highly concentrated therapeutic protein formulations was then evaluated comparatively to that of Arg and NaCl. To do this, the viscosity was measured using a cone/plate rheometer (TA Instrument, AR 2000 Ex, geometry of diameter 20 mm, cone of 0.5131°, solvent trap filled with water) at a temperature of 25° C. and in flow sweep mode with shear rates of between 5000 and 50 s^−1 (3 points per decade—steady-state sensing).
For this example, the “protein+RV” formulations were prepared by mixing a solution of RV at about 1 M obtained in example 1 with one of the concentrated infliximab and trastuzumab formulations prepared previously and the corresponding buffer so as to reach a final RV concentration of 150 mM and a final protein concentration of 125 mg/mL for infliximab and 200 mg/mL for trastuzumab. […]

[3] = system: infliximab; assay: viscosity of highly concentrated infliximab solution, cone/plate rheometer at 21° C.; format: physicochemical; settings: for % viscosity reduction relative to the control infliximab solution: Table V; for % viscosity reduction relative to the control infliximab solution / viscosity lowering on average, irrespective of the infliximab concentration: additive at 150 mM; for viscosity lowering on average, irrespective of the infliximab concentration: average over infliximab 80-110 mg/mL
Description: as §1
(§4) The protein concentration of each concentrated solution was measured by UV spectroscopy (absorbance at 280 nm) after gravimetric dilution of the samples.
(§5) The effect of RVs 2 and 9 on the viscosity of these four highly concentrated therapeutic protein solutions was then evaluated comparatively with that of Arg and NaCl.
(§6) The samples thus prepared were stored at room temperature and were analyzed using the rheometer within 24 hours of their preparation.
(§7) The pH of these formulations is the same as that of the commercial formulation of the corresponding therapeutic protein.
(§8) In this study, the highly concentrated infliximab and rituximab solutions used are the same as those which were prepared and used previously. […] The pH of these formulations is the same as that of the corresponding therapeutic protein formulation, i.e. 7.2±0.2 for infliximab, and 6.5±0.2 for rituximab.
The highly concentrated infliximab solution used is the same as that which was prepared and used previously. The “protein+RV” formulations were prepared in the presence of concentrations increasing from 0 to 200 mM of Arg or RV 9. The pH of these formulations is the same as that of the commercial infliximab formulation, i.e. 7.2±0.2.
The highly concentrated infliximab solution used is the same as that which was prepared and used previously.
The pH of these formulations is the same as that of the commercial infliximab formulation, i.e. 7.2±0.2.
The highly concentrated infliximab solution used was prepared in the same manner as that used previously. […] The pH of these formulations is the same as that of the commercial infliximab formulation, i.e. 7.2±0.2.

[4] = system: trastuzumab; assay: viscosity of highly concentrated trastuzumab formulation, cone/plate rheometer at 25° C. (example 7); format: physicochemical; settings: Table VII; trastuzumab 200 mg/mL, 150 mM additive, pH 6 ± 0.2, 25° C.
Experimental: For this example, two monoclonal antibody formulations, i.e. infliximab and trastuzumab (an IgG1/κ sold under the name Herceptin® by Genentech) were concentrated by ultrafiltration on Amicon® Ultra-50 centrifugal filtration units with a cutoff threshold of 50 kDa. The protein concentration of each concentrated solution was measured by UV spectroscopy (absorbance at 280 nm) after gravimetric dilution of the samples.
Once reconstituted, the infliximab and trastuzumab formulations were concentrated, respectively, to 212 mg/mL and 277 mg/mL.
as §3, with “sensing). […]” for “sensing).”

[5] = system: rituximab; assay: viscosity of highly concentrated rituximab solution, cone/plate rheometer; format: physicochemical; settings: rituximab 196 mg/mL, 150 mM additive
Description: as §1, §4
The solutions of rituximab (10 mg/mL) and of bevacizumab (25 mg/mL) were concentrated, respectively, to 320 mg/mL and 240 mg/mL.
as §5, §6, §7, §8

[6] = biological target: T1, abatacept (Homo sapiens, UniProt P16410); assay: viscosity of highly concentrated abatacept (fusion protein) solution, cone/plate rheometer; format: physicochemical; settings: Table I; abatacept 230 mg/mL, 150 mM additive, pH 7.5 ± 0.5, 21° C.
T1 construct: a fragment of a protein of interest which is the extracellular domain of the receptor of protein CTLA-4; purchased Bristol-Meyers Squibb (Orencia)
Description: as §1, §4, §2

[7] = system: trastuzumab; settings: phenylalanine 0.2%, i.e. 12 mM; trastuzumab 300 mg/mL; WO 2013/063 510; cited from earlier work
[8] = system: anti-IL5 antibody; settings: tyrosine 0.004% w/v, i.e. 0.2 mM; WO 2012/141 978; cited from earlier work
[9] = Table I, infliximab 107 mg/mL, 150 mM additive, pH 7.2 ± 0.2, 21° C.
[10] = Table II, infliximab 107 mg/mL, 150 mM additive, pH 7.2 ± 0.2
[11] = Table IV, infliximab 107 mg/mL, additive 25 mM, pH 7.2 ± 0.2
[12] = Table IV, infliximab 107 mg/mL, additive 50 mM, pH 7.2 ± 0.2
[13] = Table IV, infliximab 107 mg/mL, additive 100 mM, pH 7.2 ± 0.2
[14] = Table IV, infliximab 107 mg/mL, additive 150 mM, pH 7.2 ± 0.2
[15] = Table IV, infliximab 107 mg/mL, additive 200 mM, pH 7.2 ± 0.2
[16] = infliximab 80 mg/mL, pH 7.2 ± 0.2
[17] = infliximab 90 mg/mL, pH 7.2 ± 0.2
[18] = infliximab 100 mg/mL, pH 7.2 ± 0.2
[19] = infliximab 110 mg/mL, pH 7.2 ± 0.2

T1 sequence (P16410 with tags, fused parts or gaps limits assumed): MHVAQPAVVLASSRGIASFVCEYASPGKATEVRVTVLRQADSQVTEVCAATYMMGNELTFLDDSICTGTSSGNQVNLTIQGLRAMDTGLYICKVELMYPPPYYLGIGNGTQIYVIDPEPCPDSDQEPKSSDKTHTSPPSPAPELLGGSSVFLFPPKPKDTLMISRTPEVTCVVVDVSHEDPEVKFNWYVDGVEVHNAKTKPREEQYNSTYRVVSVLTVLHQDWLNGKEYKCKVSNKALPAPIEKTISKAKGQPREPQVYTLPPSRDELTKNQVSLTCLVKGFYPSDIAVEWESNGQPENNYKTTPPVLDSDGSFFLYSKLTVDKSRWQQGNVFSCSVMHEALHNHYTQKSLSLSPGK

Cl.N=C(N)NCCC[C@H](N)C(=O)O [Arg, L-arginine hydrochloride salt]
% viscosity reduction relative to the control “protein alone” [1]: 26%
% of viscosity reduction relative to the control “protein alone” [2]: 11%
% viscosity reduction relative to the control “protein alone” [3, 9]: 32%
% viscosity reduction relative to the control “protein alone” [3, 10]: 32%
% viscosity reduction relative to the control “protein alone” [3, 11]: 9%
% viscosity reduction relative to the control “protein alone” [3, 12]: 13%
% viscosity reduction relative to the control “protein alone” [3, 13]: 9%
% viscosity reduction relative to the control “protein alone” [3, 14]: 31%
% viscosity reduction relative to the control “protein alone” [3, 15]: 34%
% viscosity reduction relative to the control infliximab solution [3, 16]: 25%
% viscosity reduction relative to the control infliximab solution [3, 17]: 30%
% viscosity reduction relative to the control infliximab solution [3, 18]: 39%
% viscosity reduction relative to the control infliximab solution [3, 19]: 22%
viscosity lowering on average, irrespective of the infliximab concentration [3]: about 29%
% of viscosity reduction relative to the control “protein alone” [4]: 56%
% viscosity reduction relative to the control “protein alone” ([5]; Table I, pH 6.5 ± 0.2, 21° C.): 58%
% viscosity reduction relative to the control “protein alone” ([5]; Table III, pH 6.5 ± 0.2): 58%
% viscosity reduction relative to the control “protein alone” [6]: 31%

[Cl-].[Na+] [NaCl, sodium chloride]
% viscosity reduction relative to the control “protein alone” [1]: ≦0%
% of viscosity reduction relative to the control “protein alone” [2]: ≦0%
% viscosity reduction relative to the control “protein alone” [3, 9]: ≦0%
% viscosity reduction relative to the control “protein alone” [3, 10]: ≦0%
% of viscosity reduction relative to the control “protein alone” [4]: 38%
% viscosity reduction relative to the control “protein alone” ([5]; Table I, pH 6.5 ± 0.2, 21° C.): 21%
% viscosity reduction relative to the control “protein alone” ([5]; Table III, pH 6.5 ± 0.2): 21%
% viscosity reduction relative to the control “protein alone” [6]: 7%

Cl.NC(Cc1ccccc1)C(=O)NCCO (stereo not drawn) [RV 2, (2S-2-amino(3-phenylpropanoyl)amino)-ethanol hydrochloride salt]
% viscosity reduction relative to the control “protein alone” [3, 10]: 56%
% viscosity reduction relative to the control “protein alone” ([5]; Table III, pH 6.5 ± 0.2): 43%

Cl.N[C@H](CO)Cc1ccccc1 [RV 4, (S)-(−)-2-amino-3-phenyl-1-propanol hydrochloride salt]
% viscosity reduction relative to the control “protein alone” [3, 10]: 36%
% viscosity reduction relative to the control “protein alone” ([5]; Table III, pH 6.5 ± 0.2): 37%

C[N+](C)(C)Cc1ccccc1.[Cl-] [RV 5, benzyltrimethylammonium chloride]
% viscosity reduction relative to the control “protein alone” [3, 10]: 49%
% viscosity reduction relative to the control “protein alone” ([5]; Table III, pH 6.5 ± 0.2): 38%

Cl.NCCc1ccccc1 [RV 6, 2-phenylethylamine hydrochloride salt]
% viscosity reduction relative to the control “protein alone” [3, 10]: 38%
% viscosity reduction relative to the control “protein alone” ([5]; Table III, pH 6.5 ± 0.2): 39%

Cl.NCCc1ccc(O)c(O)c1 [RV 7, dopamine hydrochloride salt]
% viscosity reduction relative to the control “protein alone” [3, 10]: 38%
% viscosity reduction relative to the control “protein alone” ([5]; Table III, pH 6.5 ± 0.2): 39%

Cl.NCCOc1ccccc1 [RV 8, 2-phenoxyethylamine hydrochloride salt]
% viscosity reduction relative to the control “protein alone” [3, 10]: 46%
% viscosity reduction relative to the control “protein alone” ([5]; Table III, pH 6.5 ± 0.2): 52%

Cl.NC(=O)[C@@H](N)Cc1ccccc1 [RV 9, L-phenylalaninamide hydrochloride salt]
% viscosity reduction relative to the control “protein alone” [3, 10]: 52%
% viscosity reduction relative to the control “protein alone” [3, 11]: 19%
% viscosity reduction relative to the control “protein alone” [3, 12]: 31%
% viscosity reduction relative to the control “protein alone” [3, 13]: 41%
% viscosity reduction relative to the control “protein alone” [3, 14]: 44%
% viscosity reduction relative to the control “protein alone” [3, 15]: 56%
% viscosity reduction relative to the control infliximab solution [3, 16]: 50%
% viscosity reduction relative to the control infliximab solution [3, 17]: 52%
% viscosity reduction relative to the control infliximab solution [3, 18]: 55%
% viscosity reduction relative to the control infliximab solution [3, 19]: 49%
viscosity lowering on average, irrespective of the infliximab concentration [3]: about 52%
concentration sufficient to obtain a viscosity reduction equivalent to that obtained using Arg at 150 mM ([3]; infliximab 107 mg/mL): 50000 µM
efficiency in viscosity reduction relative to Arg ([3]; infliximab 107 mg/mL, at 100 mM): about 4 times
efficiency in viscosity reduction relative to Arg ([3]; infliximab 107 mg/mL, at 150 mM): twice as efficient as Arg
% viscosity reduction relative to the control “protein alone” ([5]; Table III, pH 6.5 ± 0.2): 48%

N[C@@H](Cc1ccccc1)C(=O)O [phenylalanine]
increase of the viscosity of a trastuzumab formulation [7]: 83%

N[C@@H](Cc1ccc(O)cc1)C(=O)O [tyrosine]
increase of the viscosity of the anti-IL5 antibody solution [8]: 44%
